By IC50 is commonly meant the point on the concentration scale where inhibition reaches its midpoint.

From ChEMBL document CHEMBL1126629 (J Med Chem, 1993) come the findings set out here.

Assay [1] concerns the target Sodium-dependent serotonin transporter (Homo sapiens, UniProt P31645). Put plainly: Ability to inhibit [3H]citalopram binding to serotonin transporter in cynomolgus monkey striatum. In kind it is tissue-based, Cercopithecidae. As to conditions: target entry is the homologue from another species.
Assay [2] in a line: Selectivity ratio is IC 50 value of dopamine receptor to that of serotonin 5-HT.

Sodium-dependent serotonin transporter, sequence (P31645 whole entry): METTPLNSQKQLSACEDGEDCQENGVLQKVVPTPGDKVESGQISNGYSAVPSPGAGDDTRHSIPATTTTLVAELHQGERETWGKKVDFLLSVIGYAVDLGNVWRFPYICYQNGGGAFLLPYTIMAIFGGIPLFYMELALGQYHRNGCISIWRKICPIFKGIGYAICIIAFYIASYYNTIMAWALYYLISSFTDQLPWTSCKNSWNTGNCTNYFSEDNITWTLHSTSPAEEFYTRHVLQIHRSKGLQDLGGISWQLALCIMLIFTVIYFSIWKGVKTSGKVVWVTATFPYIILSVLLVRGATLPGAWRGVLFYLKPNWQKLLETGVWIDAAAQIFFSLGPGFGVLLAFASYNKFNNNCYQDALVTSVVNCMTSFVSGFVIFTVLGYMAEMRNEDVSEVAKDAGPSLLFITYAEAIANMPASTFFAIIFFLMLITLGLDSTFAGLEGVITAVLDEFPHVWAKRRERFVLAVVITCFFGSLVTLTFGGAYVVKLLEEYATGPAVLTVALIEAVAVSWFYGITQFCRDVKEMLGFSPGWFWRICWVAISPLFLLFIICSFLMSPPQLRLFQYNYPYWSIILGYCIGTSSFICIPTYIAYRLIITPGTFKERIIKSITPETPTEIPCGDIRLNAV

In assay [1], `COC(=O)C1C(c2ccc(I)cc2)CC2CCC1N2C` (configuration not stated) registered an IC50 of 2.53 nM. Besides, in assay [2], the Selectivity ratio was found to be 2.

In assay [1], `COC(=O)C1C(c2cccc(I)c2)CC2CCC1N2C` (configuration not stated) yielded a half-maximal inhibitory concentration (IC50) of 9.88 nM. Moreover, in assay [2], the Selectivity ratio turned out to be 0.4.

In assay [1], `COC(=O)C1C(c2ccc(Cl)c(Cl)c2)CC2CCC1N2C` (configuration not stated) had an IC50 of 2.47 nM. Moreover, the Selectivity ratio in assay [2] amounted to 2.

Consider `COC(=O)C1C2CCC(CC1c1ccc(Cl)c(Cl)c1)N2` (configuration not stated), for which the IC50 in assay [1] was determined as 1.4 nM.

The compound `COC(=O)[C@H]1[C@@H](c2ccc(F)cc2)C[C@H]2CC[C@H]1N2C` had an IC50 in assay [1] of 160 nM.

In turn, `COC(=O)C1C(c2cccc(Br)c2)CC2CCC1N2C` (configuration not stated) returned a half-maximal inhibitory concentration (IC50) in assay [1] of 20.4 nM. Further, in assay [2], the Selectivity ratio worked out at 3.

On to `COC(=O)C1C2CCC(CC1c1ccc(Cl)cc1)N2` (configuration not stated), for which the IC50 in assay [1] was 1.63 nM. In addition, the Selectivity ratio in assay [2] was 1.
